In patent publication US7514446B2, “Pyrimidine compounds” (SmithKline Beecham Corporation, priority 2003, dated 2009):
pIC50: −log10 of the molar value. Structures can show the parent of a compound that is named as a salt.

Assays:
[1] = test system: H460 lung tumor cell line; assay: Methylene Blue Growth Inhibition Assay, H460; format: cell-based; conditions: Homo sapiens, NCI-H460, 72 h; H460 cells, 3 days; read-out: MeB Cell Line IC50
Procedure: (§1) II. Methylene Blue Growth Inhibition Assay
(§2) Normal Human foreskin fibroblasts (HFF) and human colon (HCT116, RKO), lung (H460), prostate (PC3), and breast tumor (MCF7) cell lines were cultured in high glucose DMEM (Life Technologies) containing 10% fetal bovine serum (FBS) at 37° C. in a humidified 10% CO2, 90% air incubator. Cells were harvested using trypsin/EDTA, counted using a haemocytometer, and plated in 100 μl of the appropriate media, at the following densities, in a 96-well tissue culture plate (Falcon 3075): HFF 5,000 cells/well, HCT116 3,000 cells/well, RKO 2,500 cells/well, H460 2,000 cells/well, PC3 8,000 cells/well, MCF7 4,000 cells/well. The next day, compounds were diluted in DMEM containing 100 μg/ml gentamicin, at twice the final required concentration, from 10 mM stock solutions in DMSO. 100 μl/well of these dilutions were added to the 100 μl of media currently on the cell plates. Medium containing 0.6% DMSO was added to control wells. Compounds diluted in DMEM were added to all cell lines. The final concentration of DMSO in all wells was 0.3%. Cells were incubated at 37° C., 10% CO2 for 3 days. Medium was removed by aspiration. Cell biomass was estimated by staining cells with 90 μl per well methylene blue (Sigma M9140, 0.5% In 50:50 ethanol:water), and incubation at room temperature for at least 30 minutes. Stain was removed, and the plates rinsed under a gentle stream of water, and air-dried. To release stain from the cells 100 μl of solubilization solution was added (1% N-lauroyl sarcosine, Sodium salt, Sigma L5125, in PBS), and plates were shaken gently for about 30 minutes. Optical density at 620 nm was measured on a microplate reader. Percent inhibition of cell growth was calculated relative to vehicle treated control wells. Concentration of compound that inhibits 50% of cell growth (IC50) was interpolated using nonlinear regression (Levenberg-Marquardt) and the equation, y=Vmax*(1−(x/(K+x)))+Y2, where “K” was equal to the IC50. In Table 1, +=10->30 uM; ++=1-10 uM: +++=<1 uM.

[2] = test system: HCT116 colon tumor cell line; assay: Methylene Blue Growth Inhibition Assay, HCT116; format: cell-based; conditions: Homo sapiens, HCT-116, 72 h; HCT116 cells, 3 days; read-out: MeB Cell Line IC50
Procedure: as §1, §2

[3] = biological target: T1, PLK1 kinase domain (Homo sapiens, UniProt P53350); assay: Assay for inhibition of PLK1 (SPA, 33P-ATP, His-tagged PLK kinase domain); format: biochemical; conditions: 2 μM ATP, read-out: Ave pIC50 PLK Enzyme Inhibition (converted)
T1 construct: made in house; host or cells: baculovirus-infected T. ni insect cells
T1 sequence (P53350 21-346): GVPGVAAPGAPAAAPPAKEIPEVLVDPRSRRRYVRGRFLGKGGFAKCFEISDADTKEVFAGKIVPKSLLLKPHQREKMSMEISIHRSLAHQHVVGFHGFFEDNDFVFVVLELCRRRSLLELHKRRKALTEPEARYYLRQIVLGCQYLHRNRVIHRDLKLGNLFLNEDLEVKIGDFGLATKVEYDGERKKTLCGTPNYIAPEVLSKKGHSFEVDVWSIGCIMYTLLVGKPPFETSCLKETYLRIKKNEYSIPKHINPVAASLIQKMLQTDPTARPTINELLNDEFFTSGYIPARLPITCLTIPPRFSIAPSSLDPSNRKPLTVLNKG
Procedure: I. Assay for Inhibition of PLK1
A. Preparation of 6× N-terminal His-tagged PLK Kinase Domain
6× N-terminal His-tagged PLK kinase domain (amino acids 21-346 preceded by […]) was prepared from baculovirus infected T. ni cells under polyhedrin promoter control. All procedures were performed at 4° C. Cells were lysed in 25 mM HEPES, 200 mM NaCl, 25 mM imidazole; pH 8.0. The homogenate was centrifuged at 14K rpm in a SLA-1500 rotor for 40 min and the supernatant filtered through a 1.2 micron filter. The supernatant was loaded onto a Nickel chelating Sepharose (Amersham Pharmacia) column and washed with 25 mM HEPES, 500 mM NaCl, 25 mM imidazole; pH 8.0. The column was then washed with a 16.6% B step where buffer B is 25 mM HEPES, 500 mM NaCl, 300 mM imidazole; pH 8.0. Protein was eluted using a 10-column volume linear gradient from 16.6% B to 100% B. Fractions containing PLK were determined by SDS-PAGE. PLK was concentrated using a 10 kDa molecular weight cutoff membrane and then loaded onto a Superdex 75 gel filtration (Amersham Pharmacia) column equilibrated in 25 mM HEPES, 1 mM DTT, 500 mM NaCl; pH 8.0. Fractions containing PLK were determined by SDS-PAGE. PLK was pooled, aliquoted and stored at −80° C. Samples were quality controlled using mass spectrometry.
B. Enzyme Activity+/−Inhibitors was Determined as Follows:
Compounds were added to the plate (1 μl in 100% DMSO). DMSO (2% final) and EDTA (55.5 mM final) were used as controls. Reaction Mix A is prepared as follows at 4° C.:
Reaction Mix A (substrate Mix): • 25 mM HEPES, pH 7.2 • 15 mM MgCl2 • 2 μM ATP • 0.1 μCi/well ^33P-γ ATP (10 Ci/mMol) • 2 μM substrate peptide (Biotin-Ahx-[…]) Reaction Mix B is prepared as follows at 4° C.:
Reaction Mix B (Enzyme Mix) • 25 mM HEPES, pH 7.2 • 15 mM MgCl2 • 0.15 mg/ml BSA • 2 mM DTT • 2-10 nM PLK1 kinase domain
Reaction Mix A (20 μl) is added per well. Reaction Mix B (20 μl) is added per well. Incubate 1.5 hrs. at RT. The enzymatic reaction is stopped with 175 μl of SPA/EDTA bead mix (29 mM EDTA, 2.5 mg/ml Streptavidin-coated SPA in Standard Dulbecco's PBS (without Mg^2+ and Ca^2+), 60 μM ATP). Plates are sealed spun (after a 1 hr incubation at RT) at 1,000×g for 7 min or settled overnight, then plates counted in Packard TopCount for 30 seconds/well.

[4] = test system: RKO colon tumor cell line; assay: Methylene Blue Growth Inhibition Assay, RKO; format: cell-based; conditions: Homo sapiens, 72 h; RKO cells, 3 days; read-out: MeB Cell Line IC50
Procedure: as §1, §2

[5] = test system: PC3 prostate tumor cell line; assay: Methylene Blue Growth Inhibition Assay, PC3; format: cell-based; conditions: Homo sapiens, PC-3, 72 h; PC3 cells, 3 days; read-out: MeB Cell Line IC50
Procedure: as §1, §2

[6] = test system: Normal Human foreskin fibroblasts (HFF); assay: Methylene Blue Growth Inhibition Assay, HFF; format: cell-based; conditions: 72 h, HFF cells, 3 days, read-out: MeB Cell Line IC50
Procedure: as §1, §2

[7] = test system: MCF7 breast tumor cell line; assay: Methylene Blue Growth Inhibition Assay, MCF7; format: cell-based; conditions: Homo sapiens, 72 h; MCF7 cells, 3 days; read-out: MeB Cell Line IC50
Procedure: as §1, §2

pIC50 [1]	pIC50 [2]	IC50 [3] [µM]	pIC50 [4]	pIC50 [5]	pIC50 [7]	Structure (SMILES)	pIC50 [6]
5.00 to 6.00	5.00 to 6.00	< 0.1	> 6.00	5.00 to 6.00	5.00 to 6.00	COc1cc(Nc2ncc([N+](=O)[O-])c(Nc3cccc4[nH]ccc34)n2)cc(OC)c1OC [Example 15, N^4-(1H-indol-4-yl)-5-nitro-N^2-(3,4,5-trimethoxyphenyl)pyrimidine-2,4-diamine hydrochloride]	5.00 to 6.00
5.00 to 6.00	5.00 to 6.00	< 0.1	5.00 to 6.00	5.00 to 6.00	5.00 to 6.00	COc1cc(Nc2ncc([N+](=O)[O-])c(Nc3cccc4c3C(=O)CCC4)n2)cc(OC)c1OC [Example 9, 8-({5-nitro-2-[(3,4,5-trimethoxyphenyl)amino]pyrimidin-4-yl}amino)-3,4-dihydronaphthalen-1(2H)-one hydrochloride]	< 5.00
< 5.00	< 5.00	< 0.1	< 5.00	< 5.00	< 5.00	COc1cc(Nc2ncc([N+](=O)[O-])c(Nc3ccc(O)cc3C(=O)O)n2)cc(OC)c1OC [Example 22, 5-Hydroxy-2-({5-nitro-2-[(3,4,5-trimethoxyphenyl)amino]pyrimidin-4-yl}amino)benzoic acid hydrochloride]	< 5.00
5.00 to 6.00	5.00 to 6.00	< 0.1	5.00 to 6.00	5.00 to 6.00	5.00 to 6.00	COc1cc(Nc2ncc([N+](=O)[O-])c(Nc3ccccc3C(=O)NC(C)(C)C)n2)cc(OC)c1OC [Example 5, N-(tert-butyl)-2-({5-nitro-2-[(3,4,5-trimethoxyphenyl)amino]pyrimidin-4-yl}amino)benzamide hydrochloride]	5.00 to 6.00
5.00 to 6.00	< 5.00	< 0.1	5.00 to 6.00	< 5.00	5.00 to 6.00	COc1cc(Nc2ncc([N+](=O)[O-])c(Nc3cccc4c3OCCO4)n2)cc(OC)c1OC [Example 19, N^4-(2,3-dihydro-1,4-benzodioxin-5-yl)-5-nitro-N^2-(3,4,5-trimethoxyphenyl)pyrimidine-2,4-diamine hydrochloride]	< 5.00

The next lines start with the compound.

Structure (SMILES)	pIC50 [1]	pIC50 [2]	IC50 [3] [µM]	pIC50 [4]	pIC50 [5]	pIC50 [7]	pIC50 [6]
COc1cc(Nc2ncc([N+](=O)[O-])c(Nc3ccccc3C(=O)NC3CCCCC3)n2)cc(OC)c1OC [Example 34, N-Cyclohexyl-2-({5-nitro-2-[(3,4,5-trimethoxyphenyl)amino]pyrimidin-4-yl}amino)benzamide hydrochloride]	5.00 to 6.00	5.00 to 6.00	< 0.1	5.00 to 6.00	< 5.00	5.00 to 6.00	5.00 to 6.00
COc1cc(Nc2ncc([N+](=O)[O-])c(Nc3ccc(Cl)cc3C(=O)c3ccccc3F)n2)cc(OC)c1OC [Example 36, [5-Chloro-2-({5-nitro-2-[(3,4,5-trimethoxyphenyl)amino]pyrimidin-4-yl}amino)phenyl](2-fluorophenyl)methanone hydrochloride]	5.00 to 6.00	5.00 to 6.00	< 0.1	5.00 to 6.00	< 5.00	5.00 to 6.00	< 5.00
CC(=O)Nc1ccc(Nc2ncc([N+](=O)[O-])c(Nc3ccccc3C(=O)c3ccccc3)n2)cc1 [Example 7, N-[4-({4-[(2-benzoylphenyl)amino]-5-nitropyrimidin-2-yl}amino)phenyl]acetamide hydrochloride]	5.00 to 6.00	5.00 to 6.00	< 0.1	5.00 to 6.00	5.00 to 6.00	5.00 to 6.00	< 5.00
